From patent US20250388589A1, “TRICYCLIC HETEROCYCLIC DERIVATIVES, COMPOSITIONS AND USES THEREOF” (Danatlas Pharmaceuticals Co., Ltd., priority 2022, published 2025)

Columns and labels:
[1] = molecular target: hPARG (C-terminal His6-tag) (Homo sapiens (Human), UniProt Q86W56); assay: PARG Enzymatic Activity Assay (HTRF); type: biochemical; conditions: hPARG 65 pM final, biotinylated-NAD ribosylated PARP1 8 nM final
Description: PARG Enzymatic Activity Assay HTRF assay was used to measure the ability of compounds to inhibit the activity of PARG in vitro. C-terminal His6-tag PARG expressed in E. coli was purified and stored at −80° C. in aliquots. Assay measurements were performed with 1×buffer comprising 50 mM Tris pH 7.4, 0.1 mg/mL BSA, 3 mM EDTA, 0.4 mM EGTA, 1 mM DTT, 50 mM KCl and 0.01% Tween 20.
Compounds dissolved in DMSO were plated into a 384-well assay plate (PerkinElmer, Catalog #: 6008280) in duplicate using a dispenser (Labcyte, Echo 665), and tested on a 10-point 4-fold serial dilution. Add 5 L Enzyme mix [hPARG (C-terminal His6-tag, 4.2 μM), 65 pM final] to the test wells. The plates were covered and left to incubate for 60 minutes at RT before the addition of 5 L substrate mix [biotinylated-NAD ribosylated PARP1 (6.1 μM), 8 nM final] to initiate reaction. After incubating 10 minutes at RT, add 2.5 L Streptavidin-Eu cryptate (Cisbio, Catalog #: 610SAKLA) and 2.5 L Mab anti 6HIS-XL665 (Cisbio, Catalog #: 61HISXLA) to the plate, and incubate for 60 minutes at RT. Read on a multimode plate reader (PerkinElmer, Envision 2015) in time-resolved fluorescence (TRF) mode, with excitation at 337 nm and emission at both 620 nm and 665 nm. Average HTRF signal of high control (Wells with 1% DMSO) was calculated and as Vehicle Control (VC). Average HTRF signal of low control (no Enzyme) was calculated and as Positive control (PC).
(§1) IC50 values were determined by fitting the data to the standard 4 parameters with Hill Slope using GraphPad Prism software.

[2] = tested on: Kuramochi cell line; assay: Cell Viability Assay (Cell Titer-Glo, 7 days); type: cell-based; conditions: 168 h, Kuramochi cells, 7 days incubation, read-out: PARG Cell viability (IC50)
Description: Cell viability studies were conducted in Kuramochi cell line. Cells were maintained in RPMI (Hyclone, Catalog #: SH3080901B) supplemented with 10% v/v FBS (AusGeneX, Catalog #: FBS500-S), 1% v/v Penicillin Streptomycin (Gibco, Catalog #: 15140122). Cells were seeded in 96-well plates (PerkinElmer, Catalog #: 6005680) at a density of 400 cells/well. Compounds dissolved in DMSO were plated in duplicate using a multichannel pipette, and tested on a 9-point 3-fold serial dilution. Cells were incubated for 7 days in a 37° C. active humidified incubator at 5% CO2. Cell viability was measured using the Cell Titer-Glo reagent (Promega, Catalog #: G7573) as manufacturer's instructions. Luminescence signal was measured with a multimode plate reader (Perkin Elmer, Envision 2105 or BMG, ClarioStar Plus). Average values of DMSO treated wells in a plate was calculated and as high control (HC). Average values of only medium in a plate was calculated and as low control (LC)
as §1

Sequence of hPARG (C-terminal His6-tag) (Q86W56 whole entry): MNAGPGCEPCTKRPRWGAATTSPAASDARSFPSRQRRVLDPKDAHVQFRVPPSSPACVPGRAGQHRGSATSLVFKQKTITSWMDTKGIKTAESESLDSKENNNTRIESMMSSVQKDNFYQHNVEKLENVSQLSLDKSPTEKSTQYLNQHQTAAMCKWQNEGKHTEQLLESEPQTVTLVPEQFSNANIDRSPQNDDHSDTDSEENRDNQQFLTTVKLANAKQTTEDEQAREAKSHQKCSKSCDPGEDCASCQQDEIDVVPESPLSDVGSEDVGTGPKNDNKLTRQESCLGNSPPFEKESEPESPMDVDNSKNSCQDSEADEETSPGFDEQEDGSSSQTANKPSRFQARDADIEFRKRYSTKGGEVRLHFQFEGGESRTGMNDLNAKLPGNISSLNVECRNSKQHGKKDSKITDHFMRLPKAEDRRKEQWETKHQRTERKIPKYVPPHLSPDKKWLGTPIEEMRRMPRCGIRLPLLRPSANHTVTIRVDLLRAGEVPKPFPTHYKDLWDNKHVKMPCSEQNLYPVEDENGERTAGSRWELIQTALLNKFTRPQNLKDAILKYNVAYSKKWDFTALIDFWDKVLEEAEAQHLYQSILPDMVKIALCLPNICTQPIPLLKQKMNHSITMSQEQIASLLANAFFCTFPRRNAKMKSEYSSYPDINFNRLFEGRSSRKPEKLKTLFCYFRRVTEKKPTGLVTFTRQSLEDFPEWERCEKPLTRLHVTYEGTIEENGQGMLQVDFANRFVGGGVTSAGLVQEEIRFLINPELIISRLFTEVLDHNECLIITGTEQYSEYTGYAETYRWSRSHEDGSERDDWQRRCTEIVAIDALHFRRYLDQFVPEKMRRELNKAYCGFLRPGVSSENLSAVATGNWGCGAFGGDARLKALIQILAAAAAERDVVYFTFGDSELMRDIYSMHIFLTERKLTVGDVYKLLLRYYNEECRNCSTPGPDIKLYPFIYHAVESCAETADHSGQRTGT

Row | SMILES | IC50 [1] [nM] | IC50 [2] [nM]
1 | N#CC1(NS(=O)(=O)c2ccc3c4c(C5CCN(C(=O)C6COC6)CC5)ncnc4n(-c4nnc(C(F)F)s4)c3c2)CC1 [Example 113, N-(1-cyanocyclopropyl)-9-(5-(difluoromethyl)-1,3,4-thiadiazol-2-yl)-4-(1-(oxetane-3-carbonyl)piperidin-4-yl)-9H-pyrimido[4,5-b]indole-7-sulfonamide] | < 100 | < 100
2 | N#CC1(NS(=O)(=O)c2ccc3c4c(N5CCC(N6CCCC6)[C@@H](F)C5)ncnc4n(-c4nnc(C(F)F)s4)c3c2)CC1 (stereo partly drawn) [Example 207, N-(1-Cyanocyclopropyl)-9-(5-(difluoromethyl)-1,3,4-thiadiazol-2-yl)-4-((3S)-3-fluoro-4-(pyrrolidin-1-yl)piperidin-1-yl)-9H-pyrimido[4,5-b]indole-7-sulfonamide] | < 100 | < 100
3 | N#CC1(NS(=O)(=O)c2ccc3c4c(N5CC6CC(C5)O6)ncnc4n(-c4nnc(C(F)F)s4)c3c2)CC1 [Example 176, 4-(6-oxa-3-azabicyclo[3.1.1]heptan-3-yl)-N-(1-cyanocyclopropyl)-9-(5-(difluoromethyl)-1,3,4-thiadiazol-2-yl)-9H-pyrimido[4,5-b]indole-7-sulfonamide] | < 100 | < 100
4 | N#CC1(NS(=O)(=O)c2ccc3c4c(C5CCCCO5)ncnc4n(-c4nnc(C(F)F)s4)c3c2)CC1 (stereo not shown) [Example 83, N-(1-cyanocyclopropyl)-9-(5-(difluoromethyl)-1,3,4-thiadiazol-2-yl)-4-(tetrahydro-2H-pyran-2-yl)-9H-pyrimido[4,5-b]indole-7-sulfonamide] | < 100 | 100 to 1000
5 | N#CC1(NS(=O)(=O)c2ccc3c4c(C5CCOCC5)ncnc4n(-c4nnc(C(F)F)s4)c3c2)CC1 [Example 79, N-(1-Cyanocyclopropyl)-9-(5-(difluoromethyl)-1,3,4-thiadiazol-2-yl)-4-(tetrahydro-2H-pyran-4-yl)-9H-pyrimido[4,5-b]indole-7-sulfonamide] | < 100 | < 100
6 | CN(C)C(=O)c1ccc(-c2ncnc3c2c2ccc(S(=O)(=O)NC4(C#N)CC4)cc2n3-c2nnc(C(F)F)s2)cn1 [Example 97, 5-(7-(N-(1-cyanocyclopropyl)sulfamoyl)-9-(5-(difluoromethyl)-1,3,4-thiadiazol-2-yl)-9H-pyrimido[4,5-b]indol-4-yl)-N,N-dimethylpicolinamide] | < 100 | < 100
7 | CN(C)C(=O)N1CCC(c2ncnc3c2c2cc(F)c(S(=O)(=O)NC4(C#N)CC4)cc2n3-c2nnc(C(F)F)s2)CC1 [Example 89, 4-(7-(N-(1-Cyanocyclopropyl)sulfamoyl)-9-(5-(difluoromethyl)-1,3,4-thiadiazol-2-yl)-6-fluoro-9H-pyrimido[4,5-b]indol-4-yl)-N,N-dimethylpiperidine-1-carboxamide] | < 100 | < 100
8 | CC1(NS(=O)(=O)c2ccc3c4c(C5CCN(C(=O)C(C)(C)O)CC5)ncnc4n(-c4nnc(C(F)F)s4)c3c2)CC1 [Example 94, 9-(5-(Difluoromethyl)-1,3,4-thiadiazol-2-yl)-4-(1-(2-hydroxy-2-methylpropanoyl)piperidin-4-yl)-N-(1-methylcyclopropyl)-9H-pyrimido[4,5-b]indole-7-sulfonamide] | < 100 | < 100
9 | CC(C)C(=O)N1CC=C(c2ncnc3c2c2cc(F)c(S(=O)(=O)NC4(C#N)CC4)cc2n3-c2nnc(C(F)F)s2)CC1 [Example 91, N-(1-Cyanocyclopropyl)-9-(5-(difluoromethyl)-1,3,4-thiadiazol-2-yl)-6-fluoro-4-(1-isobutyryl-1,2,3,6-tetrahydropyridin-4-yl)-9H-pyrimido[4,5-b]indole-7-sulfonamide] | < 100 | < 100
10 | N#CC1(NS(=O)(=O)c2ccc3c4c(N5CCC6(CC5)COC6)ncnc4n(-c4nnc(C(F)F)s4)c3c2)CC1 [Example 20, N-(1-Cyanocyclopropyl)-9-(5-(difluoromethyl)-1,3,4-thiadiazol-2-yl)-4-(2-oxa-7-azaspiro[3.5]nonan-7-yl)-9H-pyrimido[4,5-b]indole-7-sulfonamide] | < 100 | < 100

Now from value to compound, other results behind:

Row | IC50 [1] [nM] | SMILES | IC50 [2] [nM]
11 | < 100 | CC(C)C(=O)N1CCN(c2ncnc3c2c2ccc(S(=O)(=O)NC4(C#N)CC4)cc2n3-c2nnc(C(F)F)s2)CC1 [Example 11, N-(1-Cyanocyclopropyl)-9-(5-(difluoromethyl)-1,3,4-thiadiazol-2-yl)-4-(4-isobutyrylpiperazin-1-yl)-9H-pyrimido[4,5-b]indole-7-sulfonamide] | < 100
12 | < 100 | CC(C)C(=O)N1CC=C(c2ncnc3c2c2ccc(S(=O)(=O)NC4(C#N)CC4)cc2n3-c2nnc(C(F)F)s2)CC1 [Example 74, N-(1-Cyanocyclopropyl)-9-(5-(difluoromethyl)-1,3,4-thiadiazol-2-yl)-4-(1-isobutyryl-1,2,3,6-tetrahydropyridin-4-yl)-9H-pyrimido[4,5-b]indole-7-sulfonamide] | < 100
13 | 100 to 1000 | CC(C)C(=O)N1CCN(c2ncnc3c2c2ccc(S(=O)(=O)NC4(C#N)CC4)cc2n3-c2nnc(C(F)F)s2)C[C@H]1C [Example 60, (R)-N-(1-cyanocyclopropyl)-9-(5-(difluoromethyl)-1,3,4-thiadiazol-2-yl)-4-(4-isobutyryl-3-methylpiperazin-1-yl)-9H-pyrimido[4,5-b]indole-7-sulfonamide] | 100 to 1000
14 | 100 to 1000 | CC(C)C(=O)N1C[C@H](C)N(c2ncnc3c2c2ccc(S(=O)(=O)NC4(C#N)CC4)cc2n3-c2nnc(C(F)F)s2)C[C@@H]1C [Example 57, N-(1-cyanocyclopropyl)-9-(5-(difluoromethyl)-1,3,4-thiadiazol-2-yl)-4-((2S,5S)-4-isobutyryl-2,5-dimethylpiperazin-1-yl)-9H-pyrimido[4,5-b]indole-7-sulfonamide] | 100 to 1000
15 | < 100 | CC(C)C(=O)N1CCC(c2ncnc3c2c2ccc(S(=O)(=O)NC4(C#N)CC4)cc2n3-c2nnc(C(F)F)s2)CC1 [Example 76, N-(1-Cyanocyclopropyl)-9-(5-(difluoromethyl)-1,3,4-thiadiazol-2-yl)-4-(1-isobutyrylpiperidin-4-yl)-9H-pyrimido[4,5-b]indole-7-sulfonamide] | < 100
16 | < 100 | CO[C@H]1CCN(c2ncnc3c2c2ccc(S(=O)(=O)NC4(C#N)CC4)cc2n3-c2nnc(C(F)F)s2)C[C@H]1F [Example 173, N-(1-cyanocyclopropyl)-9-(5-(difluoromethyl)-1,3,4-thiadiazol-2-yl)-4-((3R,4S)-3-fluoro-4-methoxypiperidin-1-yl)-9H-pyrimido[4,5-b]indole-7-sulfonamide] | < 100
17 | < 100 | CN(C)C(=O)N1CCN(c2ncnc3c2c2ccc(S(=O)(=O)NC4(C#N)CC4)cc2n3-c2nnc(C(F)F)s2)CC1 [Example 6, 4-(7-(N-(1-Cyanocyclopropyl)sulfamoyl)-9-(5-(difluoromethyl)-1,3,4-thiadiazol-2-yl)-9H-pyrimido[4,5-b]indol-4-yl)-N,N-dimethylpiperazine-1-carboxamide] | < 100
18 | < 100 | C[C@@H]1CN(C(=O)N(C)C)CCN1c1ncnc2c1c1ccc(S(=O)(=O)NC3(C#N)CC3)cc1n2-c1nnc(C(F)F)s1 [Example 73, (R)-4-(7-(N-(1-Cyanocyclopropyl)sulfamoyl)-9-(5-(difluoromethyl)-1,3,4-thiadiazol-2-yl)-9H-pyrimido[4,5-b]indol-4-yl)-N,N,3-trimethylpiperazine-1-carboxamide] | < 100
19 | 100 to 1000 | N#CC1(NS(=O)(=O)c2ccc3c4c(N5CC[C@@H](O)C5)ncnc4n(-c4nnc(C(F)F)s4)c3c2)CC1 [Example 54, (R)-N-(1-Cyanocyclopropyl)-9-(5-(difluoromethyl)-1,3,4-thiadiazol-2-yl)-4-(3-hydroxypyrrolidin-1-yl)-9H-pyrimido[4,5-b]indole-7-sulfonamide] | 100 to 1000
20 | < 100 | C[C@@H]1CN(C)[C@@H](C)CN1c1ncnc2c1c1ccc(S(=O)(=O)NC3(C#N)CC3)cc1n2-c1nnc(C(F)F)s1 [Example 193, N-(1-Cyanocyclopropyl)-9-(5-(difluoromethyl)-1,3,4-thiadiazol-2-yl)-4-((2R,5S)-2,4,5-trimethylpiperazin-1-yl)-9H-pyrimido[4,5-b]indole-7-sulfonamide] | < 100
